System: 292921-168-R-J2-PDC KRAS tumor spheroid viability
Assay: Anticancer human tumor 292921-168-R-J2-PDC patient-derived pancreatic carcinoma cell line growth inhibition [KRAS2]
Conditions: spheroids with HUVEC and MSC; for viability, T/C: stronger effect = lower value
Procedure, shortened: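 Combination screen of spheroid viability in tumor-cell co-cultures with endothelial (HUVEC) and mesenchymal stem cell stroma. Each agent was tested in half-log dilutions, topping at clinical Cmax or at 10 microM without a known Cmax.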

[1] = curve of first compound, second compound 0.1 µM
[2] = curve of first compound, second compound 0.316 µM
[3] = curve of first compound, second compound 1 µM
[4] = curve of first compound, second compound 3.16 µM
[5] = second compound 0.1 µM, first compound 0.0316 µM
[6] = second compound 0.1 µM, first compound 0.1 µM
[7] = second compound 0.316 µM, first compound 0.0316 µM
[8] = second compound 0.316 µM, first compound 0.1 µM
[9] = second compound 1 µM, first compound 0.0316 µM
[10] = second compound 1 µM, first compound 0.1 µM
[11] = second compound 3.16 µM, first compound 0.0316 µM
[12] = second compound 3.16 µM, first compound 0.1 µM
[13] = curve of first compound, second compound 10 µM
[14] = second compound 0.1 µM, first compound 0.316 µM
[15] = second compound 0.1 µM, first compound 1 µM
[16] = second compound 0.1 µM, first compound 3.16 µM
[17] = second compound 0.1 µM, first compound 10 µM
[18] = second compound 0.316 µM, first compound 0.316 µM
[19] = second compound 0.316 µM, first compound 1 µM
[20] = second compound 0.316 µM, first compound 3.16 µM
[21] = second compound 0.316 µM, first compound 10 µM
[22] = second compound 1 µM, first compound 0.316 µM
[23] = second compound 1 µM, first compound 1 µM
[24] = second compound 1 µM, first compound 3.16 µM
[25] = second compound 1 µM, first compound 10 µM
[26] = second compound 3.16 µM, first compound 0.316 µM
[27] = second compound 3.16 µM, first compound 1 µM
[28] = second compound 3.16 µM, first compound 3.16 µM
[29] = second compound 3.16 µM, first compound 10 µM
[30] = second compound 10 µM, first compound 0.0316 µM
[31] = second compound 10 µM, first compound 0.1 µM
[32] = second compound 10 µM, first compound 0.316 µM
[33] = second compound 10 µM, first compound 1 µM
[34] = second compound 10 µM, first compound 3.16 µM
[35] = second compound 10 µM, first compound 10 µM
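Also: drug exposure lasted seven days after spheroids formed for three days.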
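For viability, T/C in this document: percent of DMSO vehicle control viability which is 100%.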

CN(C)C/C=C/C(=O)Nc1cc2c(Nc3ccc(F)c(Cl)c3)ncnc2cc1O[C@H]1CCOC1 + C=CC(=O)N1CCN(c2nc(OCC3CCCN3C)nc3c2CCN(c2cccc4cccc(C)c24)C3)CC1CC#N was tested, and the IC50 (curve of first compound, second compound 0.0316 µM) was > 100 nM, the IC50 [1] was > 100 nM and the IC50 [2] was > 100 nM. The IC50 [3] was 9.38 nM, the IC50 [4] was < 0.316 nM and the viability, T/C (second compound 0.0316 µM, first compound 0.000316 µM) was 110%. For the same molecule, the viability, T/C (second compound 0.0316 µM, first compound 0.001 µM) was 97.6%, the viability, T/C (second compound 0.0316 µM, first compound 0.00316 µM) was 89.9% and the viability, T/C (second compound 0.0316 µM, first compound 0.01 µM) was 85.3%. The viability, T/C (second compound 0.0316 µM, first compound 0.0316 µM) was 76.9%, the viability, T/C (second compound 0.0316 µM, first compound 0.1 µM) was 71.9% and the viability, T/C (second compound 0.1 µM, first compound 0.000316 µM) was 99.2%. It also gave a viability, T/C (second compound 0.1 µM, first compound 0.001 µM) of 98.1%, a viability, T/C (second compound 0.1 µM, first compound 0.00316 µM) of 85.3% and a viability, T/C (second compound 0.1 µM, first compound 0.01 µM) of 84.8%. The viability, T/C [5] was 71.4%, the viability, T/C [6] was 68.2% and the viability, T/C (second compound 0.316 µM, first compound 0.000316 µM) was 77.3%. For the same molecule, the viability, T/C (second compound 0.316 µM, first compound 0.001 µM) was 85.3%, the viability, T/C (second compound 0.316 µM, first compound 0.00316 µM) was 64.7% and the viability, T/C (second compound 0.316 µM, first compound 0.01 µM) was 60.5%. The viability, T/C [7] was 61.6%, the viability, T/C [8] was 49.3% and the viability, T/C (second compound 1 µM, first compound 0.000316 µM) was 56.8%. The viability, T/C (second compound 1 µM, first compound 0.001 µM) was 60%, the viability, T/C (second compound 1 µM, first compound 0.00316 µM) was 50.3% and the viability, T/C (second compound 1 µM, first compound 0.01 µM) was 49.5%. The viability, T/C [9] was 45.5%, the viability, T/C [10] was 34.8% and the viability, T/C (second compound 3.16 µM, first compound 0.000316 µM) was 0.73%. The viability, T/C (second compound 3.16 µM, first compound 0.001 µM) was 1.26%, the viability, T/C (second compound 3.16 µM, first compound 0.00316 µM) was 0.25% and the viability, T/C (second compound 3.16 µM, first compound 0.01 µM) was 0.27%. It also gave a viability, T/C [11] of 0.43% and a viability, T/C [12] of 0.2%.
With CC(=O)Nc1cccc(-n2c(=O)n(C3CC3)c(=O)c3c(Nc4ccc(I)cc4F)n(C)c(=O)c(C)c32)c1 the viability, T/C (compound 0.0001 µM) was 73.6% [middle of 5 runs], the viability, T/C (compound 0.000316 µM) was 51.5% [middle of 5 runs] and the viability, T/C (compound 0.001 µM) was 28.9% [middle of 5 runs]. The viability, T/C (compound 0.00316 µM) was 17.8% [middle of 5 runs], the viability, T/C (compound 0.01 µM) was 12.7% [middle of 5 runs] and the viability, T/C (compound 0.0316 µM) was 8.87% [middle of 4 runs]. The IC50 (curve of compound) was 0.328 nM [middle of 5 runs].
With CC1OCC2(CCN(c3cnc(Sc4ccnc(N)c4Cl)c(N)n3)CC2)C1N (configuration not stated) + COc1cc2nc(C)nc(NC(C)c3cc(N)cc(C(F)(F)F)c3)c2cc1OC1CCOC1 the IC50 [1] was 242 nM, the IC50 [2] was 127 nM and the IC50 [3] was 102 nM. For the same molecule, the IC50 [4] was 53 nM, the IC50 [13] was < 31.6 nM and the viability, T/C [5] was 70.2%. The viability, T/C [6] was 60.1%, the viability, T/C [14] was 46.6% and the viability, T/C [15] was 36.8%. For the same molecule, the viability, T/C [16] was 30.2%, the viability, T/C [17] was 26.9% and the viability, T/C [7] was 69.2%. The viability, T/C [8] was 53%, the viability, T/C [18] was 39.9% and the viability, T/C [19] was 33.1%. For the same molecule, the viability, T/C [20] was 29.2%, the viability, T/C [21] was 26.1% and the viability, T/C [9] was 62.4%. It also gave a viability, T/C [10] of 51%, a viability, T/C [22] of 36.1% and a viability, T/C [23] of 31.1%. The viability, T/C [24] was 26.3%, the viability, T/C [25] was 24.3% and the viability, T/C [11] was 56.1%. The viability, T/C [12] was 42.4%, the viability, T/C [26] was 33.5% and the viability, T/C [27] was 27.5%. The viability, T/C [28] was 23.8%, the viability, T/C [29] was 21.7% and the viability, T/C [30] was 23.1%. For the same molecule, the viability, T/C [31] was 20.2%, the viability, T/C [32] was 17.4% and the viability, T/C [33] was 14.2%. The viability, T/C [34] was 15.4% and the viability, T/C [35] was 13.2%.
Molecule COc1cc2nccc(Oc3ccc(NC(=O)C4(C(=O)Nc5ccc(F)cc5)CC4)cc3)c2cc1OC + COc1cc2nc(C)nc(NC(C)c3cc(N)cc(C(F)(F)F)c3)c2cc1OC1CCOC1 has an IC50 [1] of 2310 nM, an IC50 [2] of 2440 nM and an IC50 [3] of 1590 nM. For the same molecule, the IC50 [4] was 996 nM, the IC50 [13] was < 31.6 nM and the viability, T/C [5] was 102%. The viability, T/C [6] was 110%, the viability, T/C [14] was 101% and the viability, T/C [15] was 77.8%. It also gave a viability, T/C [16] of 40%, a viability, T/C [17] of 21.1% and a viability, T/C [7] of 99.4%. The viability, T/C [8] was 99.4%, the viability, T/C [18] was 92% and the viability, T/C [19] was 75%. It also gave a viability, T/C [20] of 42.5%, a viability, T/C [21] of 23.7% and a viability, T/C [9] of 102%. For the same molecule, the viability, T/C [10] was 86.9%, the viability, T/C [22] was 88.6% and the viability, T/C [23] was 60.4%. It also gave a viability, T/C [24] of 33.2%, a viability, T/C [25] of 17.6% and a viability, T/C [11] of 73.6%. For the same molecule, the viability, T/C [12] was 72.9%, the viability, T/C [26] was 64.6% and the viability, T/C [27] was 51.8%. It also gave a viability, T/C [28] of 22.2%, a viability, T/C [29] of 11.8% and a viability, T/C [30] of 45.1%. The viability, T/C [31] was 31.1%, the viability, T/C [32] was 36.6% and the viability, T/C [33] was 31.9%. For the same molecule, the viability, T/C [34] was 15.8% and the viability, T/C [35] was 0.83%.
